Here are results for one substance from patent US20130028959A1, “Liposomes for Preventing the Spread of HIV” (Massachusetts Institute of Technology, priority 2009, published 2013).

The nature of the data set: Surface charge of lipids used to make liposomes. Type of data set: physicochemical. To be noted: lipid used to make liposomes.

With “Phosphatidylcholine [Phosphatidylcholine (PC)]”, the Relative charge result is recorded as “No”.
